Measurements as given in US10203334B2, “Methods and compositions related to nucleic acid binding assays” (Nubad, LLC, priority 2012, dated 2019).

Columns and labels:
[1] = system: E. coli rRNA A-site oligonucleotide (SEQ ID NO. 1); experiment: Fluorescence titration of F-neo with bacterial rRNA A-site oligonucleotide and titration of the complex with neomycin; assay type: binding; conditions: 1:1 stoichiometric ratio of conjugate and A-site oligonucleotide; pH 7.0
Description: This compound F-neo or 42a is a fluorescein conjugate coupled through the 5″ OH position of the ribose ring of neomycin B (H. Xi, E. Davis, N. Ranjan, L. Xue, D. Hyde-Volpe, D. P. Arya, Thermodynamics of nucleic Acid “shape readout” by an aminosugar, Biochemistry. 50 (2011) 9088-9113). E. coli rRNA Asite oligonucleotide (SEQ ID NO. 1, […]) is a synthetic RNA sequence 27 bases long designed to mimic the ribosomal A-site. The A-site oligonucleotide (SEQ ID NO. 1) is titrated into F-neo (42a) to give a concentration dependent loss of fluorescence of F-neo (42a). […]
The effect of bacterial A-site oligonucleotide (SEQ ID No. 1) on the fluorescence emission intensity of a fluorescein-neomycin conjugate (F-neo or 42a) is recorded in FIG. 2. […]
The F-neo (42a) can be competitively displaced from the A-site RNA oligonucleotide (SEQ ID No. 1) by the addition of non-fluorescent RNA binding drugs. Titrating neomycin into the F-neo (42a):A-site complex increases the fluorescence in a dose dependent manner that saturates at a 1:1 stoichiometric ratio of drug-to-complex. Additionally, a strong signal window, measured as an increase in fluorescence is present at a 3:1 molar ratio, and a maximum change in fluorescence at approximately 10:1 molar ratio. […] Fluorescence emission intensity (517 nm) of 0.3 mM A-site oligonucletide/F-neo complex solution increased with increasing concentration of neomycin. […]

[2] = system: E. coli ribosomal A-site oligonucleotide (SEQ ID No. 1); experiment: 96-well F-neo displacement HTS on ribosomal A-site; assay type: binding; conditions: 96-well plate reader; 0.30 mM F-neo and 0.3 mM A-site oligonucleotide
Description: [drawing 24] where FHNeo represents the protonated form of F-neo. F(-)Neo, upon binding to nucleic acids such as DNA or RNA, is destabilized by the nucleic acid backbone negative potential, shifting the equilibrium towards FH, making F-neo a weaker acid, raising the pKa, which is what we observe upon binding to the A-site. For the A-site targeted assay, we calculated the Z' factor (Z=1-3(2.7+2.8)/(414-267)=0.89. […] Provided is a detailed example for the development of a HTS by the displacement of a fluorescene-neomycin (F-neo (42a)) from rRNA A-site oligonucleotide (SEQ ID No. 1) using a 96 well plate format and a fluorescent plate reader. […] This HTS involves the displacement of a fluorescene-neomycin (F-neo (42a)) by potential RNA binding molecules in a 96 well plate format using a fluorescent plate reader. […] F-neo based RNA binding assays have been performed using a fluorescence spectrophotometer with a 96-well plate reader and results recorded in FIG. 4. […] Fo is defined as the baseline fluorescence intensity of the RNA/F-neo complex and F is the intensity with added drug. The difference between the fluorescence intensity baseline of F-neo/A-site complex and complex with added drug (F-Fo) indicates the extent of the competition of drug for the binding site, this allows the relative binding affinities of aminoglycosides to be established. […]

NCC1O[C@H](OC2C(O)C(OC3C(O)[C@H](N)CC(N)[C@H]3O[C@H]3OC(CN)[C@@H](O)C(O)C3N)O[C@@H]2CSCCNC(=O)CCSCC(=O)Nc2ccc(-c3c4ccc(=O)cc-4oc4cc(O)ccc34)c(C(=O)O)c2)C(N)C(O)[C@@H]1O (some centres unmarked) [F-neo (42a), Neomycin-Fluorescein Conjugate]
reduction in fluorescence emission intensity [1]: 3 fold | reduction in fluorescence intensity on addition of A-site [2]: 2 fold
